From US20240083857A1, “2-Methyl-Quinazolines” (Bayer Pharma Aktiengesellschaft, priority 2017, published 2024) come the findings set out here.

The target in assay [1] is Epidermal Growth Factor Receptor (EGFR) (Homo sapiens (Human), UniProt P00533). Put plainly: EGFR kinase assay (TR-FRET). The class given is biochemical. Particulars: values given in μM; read-out: EGFR kinase inhibition IC50. The procedure, abridged: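 Read-out is the 665/620 nm HTRF ratio, from a Tb-cryptate anti-phosphotyrosine antibody and streptavidin-XL665 bound to phosphorylated biotin-peptide substrate. The enzyme, A431-derived EGFR (~3 U/ml), was given 15 min compound pre-binding at 22° C in Hepes pH 7.0 with Mg2+/Mn2+ before reaction.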
(In TR-FRET formats the signal depends on donor and acceptor labels being close together.)

Assay [2] concerns the target human SOS1 (loading of human K-Ras^G12C-GDP with fluorescent GTP-analog) (Homo sapiens, UniProt Q07889). Put plainly: Biochemical assay 3: K-Ras^G12C activation assay by hSOS1 (HTRF). Particulars: no GTP; for IC50: read-out: Assay 3 (KRAS-Activation by SOS no GTP) activity expressed as IC50; for inhibition at 20 µM: read-out: Assay 3 (KRAS-Activation by SOS no GTP) activity expressed as % inhibition at 20 μM.

A value given as a limit tells only on which side of the number the result lay.

Sequence of Epidermal Growth Factor Receptor (EGFR) (P00533 25-1210): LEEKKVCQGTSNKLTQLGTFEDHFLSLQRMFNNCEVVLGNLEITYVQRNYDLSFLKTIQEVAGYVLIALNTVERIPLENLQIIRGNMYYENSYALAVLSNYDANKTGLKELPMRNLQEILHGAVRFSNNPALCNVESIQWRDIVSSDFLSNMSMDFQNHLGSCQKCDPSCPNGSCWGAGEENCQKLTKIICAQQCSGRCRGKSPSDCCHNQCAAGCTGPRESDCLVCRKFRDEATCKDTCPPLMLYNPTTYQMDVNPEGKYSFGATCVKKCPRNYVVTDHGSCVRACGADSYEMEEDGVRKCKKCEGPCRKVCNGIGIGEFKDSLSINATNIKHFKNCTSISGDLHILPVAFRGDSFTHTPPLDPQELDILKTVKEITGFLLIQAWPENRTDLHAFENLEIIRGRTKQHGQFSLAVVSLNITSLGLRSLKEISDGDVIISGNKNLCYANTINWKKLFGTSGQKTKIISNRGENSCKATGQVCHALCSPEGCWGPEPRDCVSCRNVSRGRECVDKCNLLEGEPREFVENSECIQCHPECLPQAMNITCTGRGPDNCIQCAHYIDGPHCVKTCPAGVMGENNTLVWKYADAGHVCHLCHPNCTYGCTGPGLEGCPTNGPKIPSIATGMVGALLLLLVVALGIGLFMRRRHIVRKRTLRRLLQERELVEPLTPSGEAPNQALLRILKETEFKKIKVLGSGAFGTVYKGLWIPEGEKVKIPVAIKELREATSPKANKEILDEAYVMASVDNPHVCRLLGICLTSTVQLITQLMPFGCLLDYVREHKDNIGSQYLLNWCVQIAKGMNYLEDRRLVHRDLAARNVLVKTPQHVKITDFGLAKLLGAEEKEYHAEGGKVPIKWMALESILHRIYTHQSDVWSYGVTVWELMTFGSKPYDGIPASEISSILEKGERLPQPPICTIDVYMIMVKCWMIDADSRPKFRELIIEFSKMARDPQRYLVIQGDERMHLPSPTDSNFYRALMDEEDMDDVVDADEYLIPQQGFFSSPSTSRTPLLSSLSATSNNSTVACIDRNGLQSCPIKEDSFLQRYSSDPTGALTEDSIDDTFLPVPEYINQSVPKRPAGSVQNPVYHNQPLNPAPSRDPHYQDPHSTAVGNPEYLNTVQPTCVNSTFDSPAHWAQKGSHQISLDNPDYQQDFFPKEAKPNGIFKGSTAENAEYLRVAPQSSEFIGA

For `COc1cc2nc(C)nc(NC(C)c3ccc(-c4cscc4C#N)s3)c2cc1OC` (centres unmarked) [Example 287, 5-{1-[(6,7-dimethoxy-2-methylquinazolin-4-yl)amino]ethyl}-2,3′-bithiophene-4′-carbonitrile], the IC50 (in general, the concentration that inhibits the measured activity by half) in assay [1] was more than 20 µM; in assay [2] it was 5.76 µM.

For the molecule `COc1cc2nc(C)nc(NC(C)c3ccc(-c4ccccc4CN(C)CC(F)F)s3)c2cc1OC` (centres unmarked) [Example 291, N-{1-[5-(2-{[(2,2-difluoroethyl)(methyl)amino]methyl}phenyl)thiophen-2-yl]ethyl}-6,7-dimethoxy-2-methylquinazolin-4-amine], the IC50 was more than 20 µM in assay [1] and 2.23 µM in assay [2].

In the case of `COc1cc2nc(C)nc(NC(C)c3ccc(-c4ccccc4CN(C)C)s3)c2cc1OC` (centres unmarked) [Example 262, N-[1-(5-{2-[(dimethylamino)methyl]phenyl}thiophen-2-yl)ethyl]-6,7-dimethoxy-2-methylquinazolin-4-amine], the IC50 in assay [1] is more than 20 µM; in assay [2] it was 0.0511 µM.

For the molecule `COc1cc2nc(C)nc(NC(C)c3ccc(-c4ccc(Cl)cc4CN(C)C)s3)c2cc1OC` (centres unmarked) [Example 323, N-[1-(5-{4-chloro-2-[(dimethylamino)methyl]phenyl}thiophen-2-yl)ethyl]-6,7-dimethoxy-2-methylquinazolin-4-amine], the results for the IC50 in assay [1] and in assay [2] were more than 20 µM and 0.0664 µM, respectively.

Consider `COc1cc2nc(C)nc(NC(C)c3ccc(-c4ccccc4CN(C)CC(F)(F)F)s3)c2cc1OC` (centres unmarked) [Example 321, 6,7-di methoxy-2-methyl-N-{1-[5-(2-{[methyl(2,2,2-trifluoroethyl)amino]methyl}phenyl)thiophen-2-yl]ethyl}quinazolin-4-amine], for which the IC50 in assay [1] is more than 20 µM; in assay [2] it was 12.8 µM.

`COc1cc2nc(C)nc(NC(C)c3ccc(-c4ccccc4CNc4cc[nH]n4)s3)c2cc1OC` (centres unmarked) [Example 302, 6,7-dimethoxy-2-methyl-N-[1-(5-{2-[(1H-pyrazol-3-ylamino)methyl]phenyl}thiophen-2-yl)ethyl]quinazolin-4-amine]: the IC50 was more than 20 µM in assay [1] and 1.54 µM in assay [2].

Take `COc1cc2nc(C)nc(NC(C)c3cc4ccccc4o3)c2cc1OC` (centres unmarked) [Example 20, N-[1-(1-benzofuran-2-yl)ethyl]-6,7-dimethoxy-2-methylquinazolin-4-amine]: the IC50 in assay [1] is more than 20 µM. The inhibition – broadly, the relative decrease from the control value, in per cent – at 20 µM in assay [2] is 41%.

For the molecule `COc1cc2nc(C)nc(NC(C)c3ccc(-c4cc(Cl)ccc4CN)s3)c2cc1OC` (centres unmarked) [Example 292, N-[1-{5-[2-(aminomethyl)-5-chlorophenyl]thiophen-2-yl}ethyl]-6,7-dimethoxy-2-methylquinazolin-4-amine], the 50% inhibitory concentration (IC50) in assay [1] was more than 20 µM; in assay [2] it was 0.0413 µM.

As to `COc1cc2nc(C)nc(NC(C)c3ccc(-c4ccccc4CN4CC5(CNC(=O)N5)C4)s3)c2cc1OC` (centres unmarked) [Example 313, 2-[2-(5-{1-[(6,7-dimethoxy-2-methylquinazolin-4-yl)amino]ethyl}thiophen-2-yl)benzyl]-2,5,7-triazaspiro[3.4]octan-6-one], the IC50 in assay [1] was more than 20 µM; in assay [2] it was 0.15 µM.

Regarding `COc1cc2nc(C)nc(NC(C)c3ccc(-c4ccccc4CNCC(F)(F)F)s3)c2cc1OC` (centres unmarked) [Example 300, 6,7-di methoxy-2-methyl-N-{1-[5-(2-{[(2,2,2-trifluoroethyl)amino]methyl}phenyl)thiophen-2-yl]ethyl}quinazolin-4-amine], the IC50 in assay [1] is more than 20 µM; in assay [2] it was 5.08 µM.

Take `COc1cc2nc(C)nc(N[C@H](C)c3cccc(-c4cnn(C)c4)c3)c2cc1OC` [Example 338, 6,7-dimethoxy-2-methyl-N-{(1R)-1-[3-(1-methyl-1H-pyrazol-4-yl)phenyl]ethyl}quinazolin-4-amine]: the IC50 in assay [1] was more than 20 µM; in assay [2], 1.39 µM.

As to `COc1cc2nc(C)nc(NC(C)c3ccc(-c4ccccc4CN4CC[C@H]4CO)s3)c2cc1OC` (stereo partly drawn) [Example 318, {1-[(2S)-(5-{1-[(6,7-dimethoxy-2-methylquinazolin-4-yl)amino]ethyl}thiophen-2-yl)benzyl]azetidin-2-yl}methanol], the IC50 in assay [1] is more than 20 µM; in assay [2], 0.221 µM.

With `COc1cc2nc(C)nc(N[C@H](C)c3cccc(-c4c(C)n[nH]c4C)c3)c2cc1OC` [Example 334, N-{(1R)-1-[3-(3,5-dimethyl-1H-pyrazol-4-yl)phenyl]ethyl}-6,7-dimethoxy-2-methylquinazolin-4-amine], the figures for the IC50 in assay [1] and in assay [2] were more than 20 µM and 1.41 µM, respectively.

In the case of `COc1cc2nc(C)nc(NC(C)c3ccc(-c4ccccc4CN4CC(O)C4)s3)c2cc1OC` (centres unmarked) [Example 312, 1-[2-(5-{1-[(6,7-dimethoxy-2-methylquinazolin-4-yl)amino]ethyl}thiophen-2-yl)benzyl]azetidin-3-ol], the IC50 is more than 20 µM in assay [1] and 0.0732 µM in assay [2].

With `COc1cc2nc(C)nc(NC(C)c3ccc(-c4cccc5sc(C(N)=O)c(N)c45)s3)c2cc1OC` (centres unmarked) [Example 278, 3-amino-4-(5-{1-[(6,7-dimethoxy-2-methylquinazolin-4-yl)amino]ethyl}thiophen-2-yl)-1-benzothiophene-2-carboxamide], the IC50 in assay [1] is more than 20 µM. Moreover, the inhibition at 20 µM in assay [2] was 43%.

In the case of `COc1cc2nc(C)nc(NC(C)c3c(F)ccc4[nH]ncc34)c2cc1OC` (centres unmarked) [Example 18, N-[1-(5-fluoro-1H-indazol-4-yl)ethyl]-6,7-dimethoxy-2-methylquinazolin-4-amine], the IC50 in assay [1] is more than 20 µM; in assay [2], 10.5 µM.

Consider `COc1cc2nc(C)nc(NC(C)c3ccc(-c4cnc5n4CCC5)s3)c2cc1OC` (single isomer, unassigned; enantiomer 2) [Example 329, N-{1-[5-(6,7-dihydro-5H-pyrrolo[1,2-a]imidazol-3-yl)thiophen-2-yl]ethyl}-6,7-dimethoxy-2-methylquinazolin-4-amine, Enantiomer 2], for which the figures for the IC50 in assay [1] and in assay [2] were more than 20 µM and 10.6 µM, respectively.

On to `COc1cc2nc(C)nc(NC(C)c3cc(-c4ccn(CCO)n4)cs3)c2cc1OC` (centres unmarked) [Example 273, 2-[3-(5-{1-[(6,7-dimethoxy-2-methylquinazolin-4-yl)amino]ethyl}thiophen-3-yl)-1H-pyrazol-1-yl]ethanol], for which the results for the 50% inhibitory concentration (IC50) in assay [1] and in assay [2] were more than 20 µM and 3.63 µM, respectively.

As for `COc1cc2nc(C)nc(NC(C)c3ccc(-c4ccccc4CN4CCN(C)CC4)s3)c2cc1OC` (centres unmarked) [Example 308, 6,7-dimethoxy-2-methyl-N-[1-(5-{2-[(4-methylpiperazin-1-yl)methyl]phenyl}thiophen-2-yl)ethyl]quinazolin-4-amine], the values for the half-inhibitory concentration (IC50) in assay [1] and in assay [2] were more than 20 µM and 0.22 µM, respectively.

On to `COc1cc2nc(C)nc(NC(C)c3ccc(-c4ccccc4CN(C)CCO)s3)c2cc1OC` (centres unmarked) [Example 298, 2-{[2-(5-{1-[(6,7-dimethoxy-2-methylquinazolin-4-yl)amino]ethyl}thiophen-2-yl)benzyl](methyl)amino}ethanol], for which the results for the IC50 in assay [1] and in assay [2] were more than 20 µM and 0.0588 µM, respectively.

`COc1cc2nc(C)nc(NC(C)c3ccc(-c4ccc(CN)o4)s3)c2cc1OC` (centres unmarked) [Example 275, N-[1-{5-[5-(aminomethyl)furan-2-yl]thiophen-2-yl}ethyl]-6,7-dimethoxy-2-methylquinazolin-4-amine]: the IC50 in assay [1] is more than 20 µM; in assay [2], 6.37 µM.

With `COc1cc2nc(C)nc(NC(C)c3cncc4sccc34)c2cc1OC` (centres unmarked) [Example 332, 6,7-dimethoxy-2-methyl-N-[1-(thieno[2,3-c]pyridin-4-yl)ethyl]quinazolin-4-amine], the IC50 in assay [1] is more than 20 µM; in assay [2], 11.4 µM.
